Measurements taken from ChEMBL document CHEMBL3396976, “Design, synthesis and evaluation of isoxazolo[5,4-d]pyrimidin-4(5H)-one derivatives as antithrombotic agents” (Bioorg Med Chem Lett, 2015).
Calls of active or inactive are those of the source. No cut-off for these calls is given here.

Legend:
[1] = molecular target: T1, Coagulation factor X (Homo sapiens, UniProt P00742); test: Inhibition of human F10a using chromogenic substrate S-2765 preincubated for 10 mins at 0.1 uM by spectrophotometry
[2] = system: Plasma; test: Anticoagulant activity in human plasma assessed as concentration required to double prothrombin time; assay type: functional
[3] = molecular target: T1, Coagulation factor X; test: Inhibition of human F10a using chromogenic substrate S-2765 preincubated for 10 mins by spectrophotometry
[4] = molecular target: Prothrombin (Homo sapiens, UniProt P00734); test: Inhibition of thrombin (unknown origin) using chromogenic substrate S-2238 by spectrophotometry
[5] = species on record: Homo sapiens; test: Selectivity ratio of IC50 for thrombin (unknown origin) to IC50 for human F10a
[6] = species on record: Homo sapiens; test: Selectivity ratio of IC50 for trypsin (unknown origin) to IC50 for human F10a

T1 sequence (P00742 41-179 limits assumed): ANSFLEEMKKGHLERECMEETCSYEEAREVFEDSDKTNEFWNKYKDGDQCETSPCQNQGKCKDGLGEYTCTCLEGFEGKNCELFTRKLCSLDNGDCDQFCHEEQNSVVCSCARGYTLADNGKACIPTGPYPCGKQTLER
T1 sequence (P00742 235-488 limits assumed): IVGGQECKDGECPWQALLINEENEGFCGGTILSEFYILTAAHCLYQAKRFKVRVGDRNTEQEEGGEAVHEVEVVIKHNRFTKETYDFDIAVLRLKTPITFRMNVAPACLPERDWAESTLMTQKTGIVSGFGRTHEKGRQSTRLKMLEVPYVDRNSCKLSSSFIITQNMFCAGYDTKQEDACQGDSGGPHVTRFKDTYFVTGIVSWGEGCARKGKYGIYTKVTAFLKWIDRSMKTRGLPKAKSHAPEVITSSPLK

Row | SMILES | inhibition [1] | other results
1 | CCCNC(=O)c1ccc(-n2cnc3onc(-c4ccc(OC)cc4)c3c2=O)cc1 | 83% | –
2 | COc1ccc(-c2noc3ncn(-c4ccc(C(=O)Nc5ccccc5)cc4)c(=O)c23)cc1 | 81% | –
3 | COc1ccc(-c2noc3ncn(-c4ccc(C(=O)NC5CCCCC5)cc4)c(=O)c23)cc1 | 72% | –
4 | COc1ccc(-c2noc3ncn(-c4ccc(C(=O)Nc5ccccn5)cc4)c(=O)c23)cc1 | 89% | 2PT [2]: 3.37 µM; IC50 [3]: 18 nM; IC50 [4]: > 20000 nM; Ratio IC50 [5]: > 1000; Ratio IC50 [6]: > 1000
5 | O=C(NC[C@H]1CN(c2ccc(N3CCOCC3=O)cc2)C(=O)O1)c1ccc(Cl)s1 | Active | –
6 | O=C1COCCN1c1ccc(-n2cnc3onc(-c4ccc([N+](=O)[O-])cc4)c3c2=O)cc1 | inactive | –
7 | COc1ccc(-c2noc3ncn(-c4ccc(C(=O)N5CCCC5)cc4)c(=O)c23)cc1 | 46% | –
8 | COc1ccc(-c2noc3ncn(-c4ccc(C(=O)N5CCCCC5)cc4)c(=O)c23)cc1 | 54% | –
9 | CCN(CC)C(=O)c1ccc(-n2cnc3onc(-c4ccc(OC)cc4)c3c2=O)cc1 | 83% | –
10 | COc1ccc(-c2noc3ncn(-c4ccc(C(=O)NC5CCCC5)cc4)c(=O)c23)cc1 | 75% | –
11 | O=C1COCCN1c1ccc(-n2cnc3onc(-c4ccccc4)c3c2=O)cc1 | 27% | –
12 | COc1ccc(-c2noc3ncn(-c4ccc(C(=O)N(C)c5ccccc5)cc4)c(=O)c23)cc1 | 47% | –
13 | COc1ccc(-c2noc3ncn(-c4ccc(C(=O)N5CCOCC5)cc4)c(=O)c23)cc1 | 37% | –

The next lines start with results.

Row | inhibition [1] | SMILES | other results
14 | inactive | Cc1nc2onc(-c3ccc([N+](=O)[O-])cc3)c2c(=O)n1-c1ccc(N2CCOCC2=O)cc1 | –
15 | 43% | Cc1ccc(-c2noc3ncn(-c4ccc(N5CCOCC5=O)cc4)c(=O)c23)cc1 | –
16 | inactive | Cc1nc2onc(-c3ccccc3)c2c(=O)n1-c1ccc(N2CCOCC2=O)cc1 | –
17 | 47% | COc1ccc(-c2noc3nc(C)n(-c4ccc(N5CCOCC5=O)cc4)c(=O)c23)cc1OC | –
18 | inactive | CCc1nc2onc(-c3ccc(C)cc3)c2c(=O)n1-c1ccc(N2CCOCC2=O)cc1 | –
19 | 55% | COc1ccc(-c2noc3nc(C)n(-c4ccc(N5CCOCC5=O)cc4)c(=O)c23)cc1 | –
20 | inactive | CCc1nc2onc(-c3ccc([N+](=O)[O-])cc3)c2c(=O)n1-c1ccc(N2CCOCC2=O)cc1 | –
21 | 77% | COc1ccc(-c2noc3ncn(-c4ccc(N5CCOCC5=O)cc4)c(=O)c23)cc1OC | –
22 | 98% | COc1cc(-c2noc3ncn(-c4ccc(N5CCOCC5=O)cc4)c(=O)c23)ccc1OC(C)=O | 2PT [2]: 2.12 µM; IC50 [3]: 13 nM; IC50 [4]: > 20000 nM; Ratio IC50 [5]: > 1000; Ratio IC50 [6]: > 1000
23 | 78% | COc1ccc(-c2noc3ncn(-c4ccc(N5CCOCC5=O)cc4)c(=O)c23)cc1 | –
24 | 36% | CCc1nc2onc(-c3ccc(OC)cc3)c2c(=O)n1-c1ccc(N2CCOCC2=O)cc1 | –
25 | inactive | CCc1nc2onc(-c3ccc(Cl)cc3)c2c(=O)n1-c1ccc(N2CCOCC2=O)cc1 | –
26 | 41% | Cc1nc2onc(-c3ccc(Cl)cc3)c2c(=O)n1-c1ccc(N2CCOCC2=O)cc1 | –
27 | 56% | O=C1COCCN1c1ccc(-n2cnc3onc(-c4ccc(Cl)cc4)c3c2=O)cc1 | –
28 | inactive | CCc1nc2onc(-c3ccccc3)c2c(=O)n1-c1ccc(N2CCOCC2=O)cc1 | –
29 | inactive | Cc1ccc(-c2noc3nc(C)n(-c4ccc(N5CCOCC5=O)cc4)c(=O)c23)cc1 | –
30 | 42% | CCc1nc2onc(-c3ccc(OC)c(OC)c3)c2c(=O)n1-c1ccc(N2CCOCC2=O)cc1 | –
